Tests used:
Assay type in all cases: cell-based
Details in all cases: after 10, 20, 40 and 60 minutes at all dilutions 1:100, 1:200, 1:400, 1:800
[1] = test system: Staphylococcus aureus; assay: antimicrobial screening by agar dilution, St. aureus
Protocol: (§1) The antimicrobial properties of the 4,5-bis(4-bromophenyl)-1-hexyl-2-(3,4-dimethoxyphenyl)-1H-imidazole was studied by the method of agar dilution. Test solutions of each compound was prepared in concentration of 1% using dimethylformamide as a solvent then they were diluted in physiological solution to obtain the final experimental dilutions 1: 100, 1:200, 1:400, 1:800. The effect of these substances were compared with furacillin in a controlled study. The testing microbes used were gram positive bacteria Staphylococcus aureus, gram negative bacteria Pseudomonas aeruginosa and Escherichia coli and Candida albicans fungi were taken. The experiments used for this survey were meat-pentonlu agar (EPA) for cultivation of bacteria and Saburo environment for fungi. Each experiment used 1 ml of test solution on each plate 500 min. Add 2 drops of emulsified with microbes feel. All experimental samples were taken from the agar after 10, 20, 40, 60 minutes in the environment on the basis of Patrk planted. Bacteria were cultivated at a temperature of 37° C. for 1 day and the mushroom was kept in a thermostat for […] at a temperature of 28° C. Then results were checked.

[2] = test system: Escherichia coli; assay: antimicrobial screening by agar dilution, E. coli
Protocol: as §1

[3] = test system: Candida albicans; assay: antimicrobial screening by agar dilution, Candida albicans
Protocol: as §1

[4] = test system: Pseudomonas aeruginosa; assay: antimicrobial screening by agar dilution, Ps. aeruginosa
Protocol: as §1

Measured: inhibition activity

CCCCCCn1c(-c2ccc(OC)c(OC)c2)nc(-c2ccc(Br)cc2)c1-c1ccc(Br)cc1 [4,5-bis(4-bromophenyl)-1-hexyl-2-(3,4-dimethoxyphenyl)-1H-imidazole]
highest inhibition activity: all assays above

— patent US11981641B1, “4,5-bis(4-bromophenyl)-1-hexyl-2-(3,4-dimethoxyphenyl)-1H-imidazole as an antimicrobial compound” (KING FAISAL UNIVERSITY, priority 2023, dated 2024)
